Consider 15 molecules from PubChem BioAssay (NCI).

Values joined by “and” are separate entries in the source; they are usually repeats but may differ in a detail not shown here. Identical values can stand only once.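 Where inhibition never reached the appropriate level, the endpoint shown equals the highest concentration tested. Otherwise, values were interpolated linearly from a five-concentration, 48-hour dose response in 96-well plates. TGI: total growth inhibition.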 Where a SMILES comes first, the peptide text is derived from it. The star is where a group is joined. Cbz = O=C(OCc1ccccc1)*

Common to all, as to experiment: growth of human tumour cells (NCI), 48 h
Test [1] deals with A498 renal.
Test [2] has as its system DU-145 prostate.
The subject of test [3] is IGROV1 ovarian.
For test [4], the system named is K-562 leukemia.
The subject of test [5] is LOX IMVI melanoma.
The subject of test [6] is M14 melanoma.
The test system of test [7] is MDA-MB-231 breast.
Test [8] concerns MOLT-4 leukemia.
The test system of test [9] is SN12C renal.
The subject of test [10] is SW-620 colon.
Test [11] concerns U251 CNS.

Take `C=C(Cl)C(Cl)(CBr)CCC(Cl)C(C)(C)Cl` (stereo not given): the TGI in test [1] was found to be 4.04 µM; in test [2] it was 3.31 µM; in test [3] it was 26.3 µM; in test [4] it was 29.3 µM; in [5], 28 µM; in [6], 35.6 µM. For the same molecule, the TGI in [7] stood at 5.83 µM; in test [8], 53 µM; in test [9], 22.5 µM; in test [10] it was 4.75 µM; in test [11], 1.69 µM.

Consider `O=C1c2cc(CCl)sc2C(=O)c2ccsc21`, for which the TGI in test [1] amounted to 3.01 µM; in [2] it was 0.332 µM; in test [3], 2.83 µM; in test [4] it was 0.478 µM; in test [5], 0.149 µM; in [6], 0.0462 µM. In addition, the TGI in test [7] was 0.588 µM; in test [8] it was 0.47 µM; in test [9], 0.842 µM; in test [10], 0.387 µM; in [11], 1.14 µM.

For `COC(=O)CCCCC/C(=C\C(=O)C(Cl)(Cl)Cl)OC`, the TGI in test [1] is more than 100 µM; in [2], 63.1 µM; in test [3] it was 32.2 µM; in test [4] it was more than 100 µM; in test [5] it was 44.9 µM; in test [6] it was more than 100 µM. Besides, the TGI in [7] is more than 100 µM; in test [8] it was 60.1 µM; in test [9], more than 100 µM; in test [10], 84.3 µM; in test [11], 90 µM.

Regarding `CC/C(Cl)=N\OC(=O)Nc1ccc(C#N)cc1`, the TGI in test [1] was 30.3 µM; in [2], 29.6 µM; in test [3] it was 30.6 µM; in test [4], 4.28 µM; in test [5] it was 15.9 µM; in test [6], 24.8 µM. In addition, the TGI was 29.1 µM in [7]; 11 µM in test [8]; 30.3 µM in [9]; 11.7 µM in [10]; 30.8 µM in test [11].

For the molecule `CC(C)(C)OC(=O)NC(Cc1ccc([N+](=O)[O-])cc1)C(=O)NC(CCCCNC(=O)OCc1ccccc1)C(=O)ON1C(=O)CCC1=O` (stereo not given), the TGI is more than 100 µM in test [1]; more than 100 µM in test [2]; more than 100 µM in [3]; 73.1 µM in test [4]; more than 100 µM in test [5]; more than 100 µM in test [6]. Also, the TGI in test [7], in test [8], in [9], in test [10] and in [11] was more than 100 µM in each case.

`Cc1ccc(C2=Nc3c(N)nc(N)nc3NC(c3ccccc3)C2)cc1` (stereo not given): the TGI was 23.6 µM in test [1]; 28.3 µM and 29.3 µM in test [2]; 21.2 µM and 21.6 µM in test [3]; more than 100 µM in [4]; 23 µM and 28 µM in test [5]; 20.8 µM and 21.8 µM in test [6]. Also, the TGI in test [7] is 19.7 µM and 28.9 µM; in test [8], 28.3 µM and 97.6 µM; in test [9], 23.7 µM and 32 µM; in test [10], 15.2 µM and 16.2 µM; in test [11] it was 24.6 µM and 26.4 µM.

Consider `Cn1c(=O)n(CC(Br)CBr)c(=O)n(CC(Br)CBr)c1=O` (stereo not given), for which the TGI in [1] is more than 100 µM; in test [2], more than 100 µM; in test [3], more than 100 µM; in test [4] it was more than 100 µM; in test [5], 34.9 µM; in [6], 73.6 µM. For the same molecule, the TGI is more than 100 µM in test [7]; 87.1 µM in test [8]; 67.3 µM in test [9]; more than 100 µM in test [10]; more than 100 µM in test [11].

As to `CCOC(=O)C(C)NC(=O)C(C)NC(=O)C(C)NC(=O)C(C)NC(=O)C(C)NC(=O)C(C)NC(=O)C(C)NC(=O)OCc1ccccc1` (stereo not given) (Cbz-AAAAAAA-OEt; configuration not given here), the TGI in test [1], in test [2], in [3], in test [4], in test [5] and in [6] was more than 100 µM each time. For the same molecule, the TGI in test [7], in test [8], in test [9], in test [10] and in test [11] was more than 100 µM throughout.

For `O=C(/C=C/c1ccc(O)c(O)c1)OCCOC(=O)/C=C/c1ccc(O)c(O)c1`, the TGI was more than 100 µM in [1]; 79.8 µM in test [2]; more than 100 µM in test [3]; 63.2 µM in test [4]; 93.3 µM in test [5]; 28.5 µM in [6]. Moreover, the TGI was more than 100 µM in [7]; 44.9 µM in test [8]; 65.1 µM in test [9]; more than 100 µM in test [10]; 59.2 µM in test [11].

Consider `Cc1cc(=Nc2ccc3c(c2)c(N)cc(C)[n+]3C)nc(N)n1C`, for which the TGI in test [1], in [2], in test [3], in test [4], in [5] and in [6] was more than 100 µM throughout. For the same molecule, the TGI in [7], in [8], in [9], in [10] and in test [11] was more than 100 µM in each case.

`CC(C)[Si]1(C(C)C)OCC2OC(n3ccc(=O)[nH]c3=O)C(O)(CO)C2O[Si](C(C)C)(C(C)C)O1` (stereo not given): the TGI in test [1] stood at 36.1 µM; in test [2], 32.4 µM; in [3], 23.9 µM; in test [4], 81.6 µM; in test [5] it was 30.7 µM; in test [6], 34.8 µM. For the same molecule, the TGI was 26.7 µM in test [7]; 69.1 µM in test [8]; 29.8 µM in test [9]; 33.8 µM in test [10]; 30.1 µM in test [11].

With `CC1(C)CC(=O)c2c(nc3ccc4ccccc4c3c2-c2ccc(NC(=O)CCCCC(=O)Nc3ccc(-c4c5c(nc6ccc7ccccc7c46)CC(C)(C)CC5=O)cc3)cc2)C1`, the TGI in test [1], in [2], in [3], in test [4], in test [5] and in test [6] was more than 100 µM in each case. Also, the TGI in test [7], in test [8], in test [9], in test [10] and in [11] was more than 100 µM each time.

Turning to `Cc1n[nH]c(=O)n1N=C(c1ccccc1)c1ccccc1`, the TGI in test [1], in test [2], in test [3], in [4], in test [5] and in test [6] was more than 100 µM throughout. Also, the TGI in test [7], in [8], in [9], in test [10] and in test [11] was more than 100 µM throughout.

Take `COC(=O)C1=C(C)NC(C)=C([N+](=O)[O-])C1c1cccc(NO)c1` (stereo not given): the TGI in [1] is 70 µM; in [2] it was more than 100 µM; in test [3] it was 22.9 µM; in test [4], more than 27.1 µM; in [5], 15.5 µM; in [6], 12.3 µM. The TGI in test [7] was 17 µM; in test [8], more than 26 µM; in test [9], more than 30.8 µM; in test [10], 16.5 µM; in test [11], more than 100 µM.

In the case of `C[C@@H]1CCC2[C@@H](C)C(=O)O[C@@H]3C4C[C@@H]1[C@@]23OO[C@@]4(C)O` (stereo not given in full), the TGI in test [1] is more than 100 µM; in test [2] it was more than 100 µM; in [3] it was more than 100 µM; in test [4] it was more than 100 µM; in test [5] it was 62.7 µM; in test [6], more than 100 µM. For the same molecule, the TGI in test [7], in test [8], in test [9], in test [10] and in test [11] was more than 100 µM in each case.
